Measured values reported in patent EP4227307A1 (Genzyme Corporation, priority 2022, dated 2023).
pIC50: −log10 of the molar value. Where a name gives a salt, the structure may show the parent alone.

Target: T1, human recombinant 6His-Nterm SHP2 full-length (Thr2-Arg593) (Homo sapiens, UniProt Q06124)
T1 construct: 6His-Nterm SHP2 full-length (Thr2-Arg593, R&D system); 6His (N); purchased R&D system
T1 sequence (Q06124 2-593): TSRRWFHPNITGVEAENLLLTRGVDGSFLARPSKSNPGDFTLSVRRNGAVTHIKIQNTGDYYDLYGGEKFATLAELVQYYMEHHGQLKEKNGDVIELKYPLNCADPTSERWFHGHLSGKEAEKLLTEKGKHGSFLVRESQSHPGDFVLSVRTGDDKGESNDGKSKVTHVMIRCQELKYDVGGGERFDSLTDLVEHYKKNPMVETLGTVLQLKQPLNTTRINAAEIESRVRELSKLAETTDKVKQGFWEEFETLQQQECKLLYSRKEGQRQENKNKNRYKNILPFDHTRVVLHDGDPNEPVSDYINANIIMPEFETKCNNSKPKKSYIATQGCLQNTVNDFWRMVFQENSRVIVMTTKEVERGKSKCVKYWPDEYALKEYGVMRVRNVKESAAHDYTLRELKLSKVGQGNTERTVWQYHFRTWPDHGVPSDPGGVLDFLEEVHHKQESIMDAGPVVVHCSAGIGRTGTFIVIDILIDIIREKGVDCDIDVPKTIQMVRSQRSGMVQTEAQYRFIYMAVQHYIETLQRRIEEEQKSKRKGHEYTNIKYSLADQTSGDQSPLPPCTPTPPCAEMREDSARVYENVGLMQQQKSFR
Assay: SHP2 Phosphatase Assay (DiFMUP fluorescence)
Format: biochemical
Details: SHP2 0.2 nM pre-incubated with 100 nM bi-phosphorylated activating peptide; compound 1000-0.05 nM, 30 min pre-incubation; DiFMUP 20 µM, 45 min, room temperature; 10-concentration dose-response
Procedure: Inhibition of SHP2 phosphatase activity was evaluated using human recombinant 6His-Nterm SHP2 full-length (Thr2-Arg593, R&D system), NsCs bi-phosphorylated activating peptide (NH2-LN(pY)AQLWHA(PEG8)LTI(pY)ATIRRF-Amide.acetate, Thermofischer Scientific) and DiFMUP as surrogate phosphatase substrate (Molecular Probes). All reactions were performed at room temperature in 384-well black polystyrene non-binding plate (Corning) with the assay buffer (50 mM HEPES-NaOH pH 7.2, 100 mM NaCl, 0.5 mM EDTA, 0.001% Brij35 including 0.02% BSA and 1 mM DTT added extemporaneously). SHP2 was pre-incubated at least 10 min with the activating peptide (0.2 nM and 100 nM, respectively). 10 µL of this mixture was added to the assay plate, that already contained 15 nL of the compound (1000-0.05 nM). After 30 min pre-incubation, the enzymatic reaction was initiated by the addition of 5 µL DiFMUP in assay buffer without BSA (20 µM). The reaction was stopped by the addition of 15 µL sodium pervanadate solution (100 µM) after 45 min incubation. The fluorescence signal was measured at excitation and emission wavelengths of 350 nm and 450 nm, respectively, using a Pherastar instrument (BMG-LabTech). Percentage of inhibition […] were calculated from the fluorescence signal at 450 nm of the positive and negative control using the following formula: I% = ((signal Max−signal Sample)/(signal Max−signal Min control)) × 100 [formula]
Positive control (Max): corresponds to the maximum fluorescence signal obtained in the presence of 15 nL DMSO replacing the inhibitor in the pre-incubation step.
Negative control (Min): corresponds to the minimum signal obtained in the presence of 1 µM of RMC-4550, the structure of which is shown below: [drawing 464]
The IC50 were then calculated from a dose-response curve of 10 concentrations of tested compound using the 4-parameter logistic model: I% = A + (C)/(1 + exp(−B×log(X)−M)) [formula]
The parameters A and (A+C) are the lower and upper limits, B is the slope of the curve at the inflexion point, M parameter is the logarithm of the abscissa at the inflexion point, and X is the concentration of compound.

Row | SMILES | pIC50
1 | Cc1nc(N2CCC3(CC2)Cc2ncccc2[C@H]3N)c2ccnn2c1-c1ccnc(C(F)(F)F)c1 [Compound 49, (5S)-1'-[6-methyl-7-[2-(trifluoromethyl)-4-pyridyl]pyrazolo[1,5-a]pyrazin-4-yl]spiro[5,7-dihydrocyclopenta[b]pyridine-6,4'-piperidine]-5-amine] | 6.89
2 | Cc1nc(N2CCC3(CC2)Cc2cccnc2[C@H]3N)c2ccnn2c1-c1cnn(C)c1C [Compound 130, (7S)-1'-[7-(1,5-dimethylpyrazol-4-yl)-6-methyl-pyrazolo[1,5-a]pyrazin-4-yl]spiro[5,7-dihydrocyclopenta[b]pyridine-6,4'-piperidine]-7-amine] | 7.22
3 | Cc1cnccc1-c1c(C)nc(N2CCC3(CC2)Cc2ncccc2[C@H]3N)c2ccnn12 [Compound 98, (5S)-1'-[6-methyl-7-(3-methyl-4-pyridyl)pyrazolo[1,5-a]pyrazin-4-yl]spiro [5,7-dihydrocyclopenta[b]pyridine-6,4'-piperidine] -5-amine formate] | 6.84
4 | Cc1nc(N2CCC3(CC2)Cc2ncccc2[C@H]3N)c2ccnn2c1-c1cccc(F)c1F [Compound 1, (5S)-1'-[7-(2,3-difluorophenyl)-6-methyl-pyrazolo[1,5-a]pyrazin-4-yl]spiro[5,7-dihydrocyclopenta[b]pyridine-6,4'-piperidine]-5-amine] | 8.22
5 | Cc1nc(N2CCC3(CC2)Cc2ncccc2[C@H]3N)c2ccnn2c1-c1ccc2cnccc2c1 [Compound 169, (5S)-1'-[7-(6-isoquinolyl)-6-methyl-pyrazolo[1,5-a]pyrazin-4-yl]spiro[5,7-dihydrocyclopenta[b]pyridine-6,4'-piperidine]-5-amine] | 7.80
6 | Cc1nc(N2CCC3(CC2)Cc2ncccc2[C@H]3N)c2ccnn2c1-c1sccc1Cl [Compound 38, (5S)-1'-[7-(3-chloro-2-thienyl)-6-methyl-pyrazolo[1,5-a]pyrazin-4-yl]spiro[5,7-dihydrocyclopenta[b]pyridine-6,4'-piperidine]-5-amine] | 7.92
7 | Cc1nc(N2CCC3(CC2)Cc2ccncc2[C@H]3N)c2ccnn2c1-c1ccccc1 [Compound 138, (7S)-1'-(6-methyl-7-phenyl-pyrazolo[1,5-a]pyrazin-4-yl)spiro[5,7-dihydrocyclopenta[c]pyridine-6,4'-piperidine]-7-amine] | 8.40
8 | Cc1nccc(-c2c(C)nc(N3CCC4(CC3)Cc3ncsc3[C@H]4N)c3ccnn23)c1Cl [Compound 73, (6S)-1'-[7-(3-chloro-2-methyl-4-pyridyl)-6-methyl-pyrazolo[1,5-a]pyrazin-4-yl]spiro[4,6-dihydrocyclopenta[d]thiazole-5,4'-piperidine]-6-amine hydrochloride] | 8.30
9 | Cc1nc(N2CCC3(CC2)Cc2ncccc2[C@H]3N)c2c(F)cnn2c1-c1ccccc1F [Compound 142, (5S)-1'-[3-fluoro-7-(2-fluorophenyl)-6-methyl-pyrazolo [1,5-a]pyrazin-4-yl]spiro[5,7-dihydrocyclopenta[b]pyridine-6,4'-piperidine]-5-amine hydrochloride] | 7.59
10 | Cc1nc2c(s1)CC1(CCN(c3nc(C)c(-c4ccnc(C)c4Cl)n4nccc34)CC1)[C@@H]2N [Compound 105, (4S)-1'-[7-(3-chloro-2-methyl-4-pyridyl)-6-methyl-pyrazolo[1,5-a]pyrazin-4-yl]-2-methyl-spiro[4,6-dihydrocyclopenta[d]thiazole-5,4'-piperidine]-4-amine hydrochloride] | 8.22
11 | Cc1nc(N2CCC3(CC2)Cc2ncccc2[C@H]3N)c2c(C(F)F)cnn2c1-c1ccccc1F [Compound 147, (5S)-1'-[3-(difluoromethyl)-7-(2-fluorophenyl)-6-methyl-pyrazolo[1,5-a]pyrazin-4-yl]spiro[5,7-dihydrocyclopenta[b]pyridine-6,4'-piperidine]-5-amine] | < 6.00
12 | Cc1nc(N2CCC3(CC2)Cc2c(F)cccc2[C@H]3N)c2ccnn2c1-c1ccccc1F [Compound 93, (1S)-4-fluoro-1'-[7-(2-fluorophenyl)-6-methyl-pyrazolo[1,5-a]pyrazin-4-yl]spiro[indane-2,4'-piperidine]-1-amine hydrochloride] | 7.34
13 | Cc1nc2c(o1)[C@@H](N)C1(CCN(c3nc(C)c(-c4ccccc4F)n4nccc34)CC1)C2 [Compound 224, (6S)-1'-[7-(2-fluorophenyl)-6-methyl-pyrazolo[1,5-a]pyrazin-4-yl]-2-methyl-spiro[4,6-dihydrocyclopenta[d]oxazole-5,4'-piperidine]-6-amine] | 7.57
14 | Cc1nc(N2CCC3(CC2)Cc2ccccc2[C@H]3N)c2ccnn2c1-c1cnoc1C [Compound 150, (1S)-1'-[6-methyl-7-(5-methylisoxazol-4-yl)pyrazolo[1,5-a]pyrazin-4-yl]spiro[indane-2,4'-piperidine]-1-amine] | 6.85
15 | Cc1nc(N2CCC3(CC2)Cc2c(ccnc2CO)[C@H]3N)c2ccnn2c1-c1ccccc1F [Compound 35, [(5S)-5-amino-1'-[7-(2-fluorophenyl)-6-methyl-pyrazolo[1,5-a]pyrazin-4-yl]spiro[5,7-dihydrocyclopenta[c]pyridine-6,4'-piperidine]-1-yl]methanol] | 8.10

Next, values leading:

Row | pIC50 | SMILES
16 | 7.52 | Cc1nc(N2CCC3(CC2)Cc2ncccc2[C@H]3N)c2ccnn2c1-c1cc(C(F)(F)F)nn1C [Compound 163, (5S)-1'-[6-methyl-7-[2-methyl-5-(trifluoromethyl)pyrazol-3-yl]pyrazolo[1,5-a]pyrazin-4-yl]spiro[5,7-dihydrocyclopenta[b]pyridine-6,4'-piperidine]-5-amine]
17 | 7.14 | Cc1nc(N2CCC3(CC2)Cc2ncccc2[C@H]3N)c2ccnn2c1-c1cscc1C#N [Compound 46, 4-[4-[(5S)-5-aminospiro[5,7-dihydrocyclopenta[b]pyridine-6,4'-piperidine]-1'-yl]-6-methyl-pyrazolo[1,5-a]pyrazin-7-yl]thiophene-3-carbonitrile]
18 | < 6.00 | Cc1nn(C)c(C)c1-c1c(C)nc(N2CCC3(CC2)Cc2ncccc2[C@H]3N)c2ccnn12 [Compound 33, (5S)-1'-[6-methyl-7-(1,3,5-trimethylpyrazol-4-yl)pyrazolo[1,5-a]pyrazin-4-yl]spiro[5,7-dihydrocyclopenta[b]pyridine-6,4'-piperidine]-5-amine]
19 | < 6.00 | Cc1nc(N2CCC3(CC2)Cc2ncccc2[C@H]3N)c2c(CO)cnn2c1-c1ccccc1 [Compound 145, [4-[(5S)-5-aminospiro[5,7-dihydrocyclopenta[b]pyridine-6,4'-piperidine]-1'-yl]-6-methyl-7-phenyl-pyrazolo[1,5-a]pyrazin-3-yl]methanol]
20 | 8.40 | Cc1nc(N2CCC3(CC2)Cc2ccncc2[C@H]3N)c2ccnn2c1-c1ccccc1F [Compound 134, (7S)-1'-[7-(2-fluorophenyl)-6-methyl-pyrazolo[1,5-a]pyrazin-4-yl]spiro[5,7-dihydrocyclopenta[c]pyridine-6,4'-piperidine]-7-amine]
21 | 6.84 | Cc1nc(N2CCC3(CC2)Cc2c(F)cccc2[C@H]3N)c2ccnn2c1-c1cccc(F)c1F [Compound 94, (1S)-1'-[7-(2,3-difluorophenyl)-6-methyl-pyrazolo[1,5-a]pyrazin-4-yl]-4-fluoro-spiro[indane-2,4'-piperidine]-1-amine formate]
22 | 8.22 | Cc1nc(N2CCC3(CC2)Cc2ncccc2[C@H]3N)c2ccnn2c1-c1cccc(F)c1 [Compound 203, (5S)-1'-[7-(3-fluorophenyl)-6-methyl-pyrazolo[1,5-a]pyrazin-4-yl]spiro[5,7-dihydrocyclopenta[b]pyridine-6,4'-piperidine]-5-amine]
